# Source: ChEMBL document CHEMBL1153064, “From lead to preclinical candidate: optimization of beta-homophenylalanine based inhibitors of dipeptidyl peptidase IV” (Bioorg Med Chem Lett, 2009)
# Test: in vitro
# Conditions: human
smiles,measurement,setting,value
N[C@@H](CC(=O)N1CCC[C@H]1CNC(=O)CC(F)(F)F)Cc1cc(F)c(F)cc1F,"half-life at 0.75 h, 3 µM",liver microsomes,> 120 min
N[C@@H](CC(=O)N1CCC[C@H]1COCC1CC1)Cc1cc(F)c(F)cc1F,"half-life at 0.75 h, 3 µM",microsomes,30 min
N[C@@H](CC(=O)N1CCC[C@H]1CNC(=O)C1CCCC1)Cc1cc(F)c(F)cc1F,"half-life at 0.75 h, 3 µM",liver microsomes,71 min
N[C@@H](CC(=O)N1CCC[C@H]1CNC(=O)C1CCC1)Cc1cc(F)c(F)cc1F,"half-life at 0.75 h, 3 µM",liver microsomes,38 min
